Biological target: T1, streptavidin (Streptomyces avidinii, UniProt P22629)
T1 construct: purchased GE Healthcare (Little Chalfont, UK)
Assay: Cy5-streptavidin binding on HotSpot discovery array, 5-mer L-peptide library
Conditions: for S/B: signal to background ratio
Procedure, shortened: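 Array of 2,476,099 5-mer peptides (19 amino acids, no cysteine) with Gly-Ser linkers, probed overnight at 4 °C with 0.5 µg/ml Cy5-streptavidin in Tris pH 7.4 buffer containing casein or BSA plus Tween-20. Cy5 fluorescence read at 635 nm; peptides selected by signal-to-background >4 across three arrays.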

[1] = 5-mer L-peptide library array, Cy5-streptavidin, from average of three arrays
[2] = 5-mer L-peptide library, from the average of three arrays
[3] = average of three arrays, L-peptide 5-mer library
[4] = 5-mer L-peptide library array, Cy5-streptavidin
[5] = 5-mer L-peptide library array, Cy5-streptavidin, from the average of three arrays

T1 sequence (P22629 25-183): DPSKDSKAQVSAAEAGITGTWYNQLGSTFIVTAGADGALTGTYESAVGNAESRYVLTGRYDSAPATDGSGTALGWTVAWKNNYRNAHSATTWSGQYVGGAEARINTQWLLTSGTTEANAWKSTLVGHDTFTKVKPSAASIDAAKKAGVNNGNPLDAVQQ

Question: With WPHPQ as the substance, how does the “S/B (signal to background ratio)” value [1] read?
Answer: The value was 191.6.

Question: With YWHPM as the substance, how does the “S/B (signal to background ratio)” value [1] read?
Answer: The value was 54.2.

Question: With FMPHP as the substance, how does the “S/B (signal to background ratio)” value [2] read?
Answer: Its value is 5.0.

Question: With “RHDLY [L-amino acid 5-mer array peptide]” as the substance, how does the “S/B (signal to background ratio)” value [3] read?
Answer: Its value is 6.6.

Question: And the S/B [4]?
Answer: The S/B was 6.6.

Question: WHPMV was tested. Which “S/B (signal to background ratio)” value [1] did it give?
Answer: The value was 49.4.

Question: For VYHPQ, which “S/B (signal to background ratio)” value [1] is on record?
Answer: Its value is 168.1.

Question: With YHFPQ as the substance, how does the “S/B (signal to background ratio)” value [2] read?
Answer: Its value is 4.9.

Question: With KHPMF as the substance, how does the “S/B (signal to background ratio)” value [2] read?
Answer: Its value is 4.5.

Question: With PHPQF as the substance, how does the “S/B (signal to background ratio)” value [5] read?
Answer: Its value is 98.8.

Question: With FTHPM as the substance, how does the “S/B (signal to background ratio)” value [5] read?
Answer: Its value is 86.0.

Question: Which “S/B (signal to background ratio)” value [5] does the source give for MWHPM here?
Answer: Its value is 86.7.

Question: With QGHPM as the substance, how does the “S/B (signal to background ratio)” value [1] read?
Answer: Its value is 56.0.

Question: For LPHPQ, which “S/B (signal to background ratio)” value [1] is on record?
Answer: Its value is 180.6.

Question: With YGHPQ as the substance, how does the “S/B (signal to background ratio)” value [1] read?
Answer: The value was 210.5.

Question: Which “S/B (signal to background ratio)” value [1] does the source give for LAHPQ here?
Answer: Its value is 168.6.

Question: MFHPQ was tested. Which “S/B (signal to background ratio)” value [1] did it give?
Answer: The value was 198.9.

Question: With HPQRG as the substance, how does the “S/B (signal to background ratio)” value [1] read?
Answer: Its value is 33.4.

Question: Which “S/B (signal to background ratio)” value [5] does the source give for HDHPQ here?
Answer: The value was 112.6.

Question: Which “S/B (signal to background ratio)” value [5] does the source give for HEHPQ here?
Answer: Its value is 76.5.

Question: VHPQS was tested. Which “S/B (signal to background ratio)” value [5] did it give?
Answer: Its value is 73.9.

Question: For GHPMW, which “S/B (signal to background ratio)” value [2] is on record?
Answer: The value was 4.4.

Question: HPMYQ was tested. Which S/B [4] did it give?
Answer: The S/B was 5.7.

Question: For GRHPM, which “S/B (signal to background ratio)” value [5] is on record?
Answer: The value was 62.1.

Question: With WFHPQ as the substance, how does the “S/B (signal to background ratio)” value [1] read?
Answer: Its value is 178.0.

Question: Which S/B [4] does the source give for EHPQQ here?
Answer: Its S/B is 16.2.

Question: QWHPQ was tested. Which “S/B (signal to background ratio)” value [1] did it give?
Answer: The value was 173.7.

Question: With PHPQQ as the substance, how does the “S/B (signal to background ratio)” value [1] read?
Answer: The value was 53.1.

Question: For MEHPM, which “S/B (signal to background ratio)” value [1] is on record?
Answer: Its value is 23.4.

Question: For HPMRY, which S/B [4] is on record?
Answer: The S/B was 5.8.

Question: With HPQQS as the substance, how does the “S/B (signal to background ratio)” value [1] read?
Answer: Its value is 19.2.

Question: How did the “S/B (signal to background ratio)” value [5] turn out when LLHPQ was run?
Answer: The value was 105.6.

Question: Which S/B [4] does the source give for PMPDD here?
Answer: Its S/B is 8.2.

Question: Which “S/B (signal to background ratio)” value [1] does the source give for QHPQG here?
Answer: Its value is 122.5.

Question: TNHPM was tested. Which “S/B (signal to background ratio)” value [1] did it give?
Answer: The value was 57.8.

Question: HPQVE was tested. Which “S/B (signal to background ratio)” value [1] did it give?
Answer: The value was 19.8.

Question: How did the “S/B (signal to background ratio)” value [5] turn out when VVHPQ was run?
Answer: The value was 79.7.

Question: Which results are given for “LARYH [L-amino acid 5-mer array peptide]”?
Answer: S/B (signal to background ratio) [3]: 12.2; S/B [4]: 12.2

Question: Which “S/B (signal to background ratio)” value [1] does the source give for GHHPQ here?
Answer: The value was 149.8.

Question: How did the S/B [4] turn out when DHPMK was run?
Answer: Its S/B is 13.3.

Question: With HPQRW as the substance, how does the “S/B (signal to background ratio)” value [1] read?
Answer: Its value is 30.7.

Question: Which “S/B (signal to background ratio)” value [2] does the source give for RHPMD here?
Answer: Its value is 4.3.

Question: For WHPQA, which “S/B (signal to background ratio)” value [1] is on record?
Answer: Its value is 172.2.

Question: For HPQGV, which “S/B (signal to background ratio)” value [1] is on record?
Answer: Its value is 45.0.

Question: With RQHPQ as the substance, how does the “S/B (signal to background ratio)” value [1] read?
Answer: The value was 139.3.

Question: HHPMM was tested. Which S/B [4] did it give?
Answer: Its S/B is 18.7.

Question: Which S/B [4] does the source give for YHPMY here?
Answer: Its S/B is 12.0.

Question: Which “S/B (signal to background ratio)” value [5] does the source give for HYHPM here?
Answer: The value was 88.3.

Question: With QPHPM as the substance, how does the “S/B (signal to background ratio)” value [1] read?
Answer: The value was 52.0.

Question: With WLHPQ as the substance, how does the “S/B (signal to background ratio)” value [1] read?
Answer: Its value is 190.9.

Question: Which “S/B (signal to background ratio)” value [1] does the source give for WHPMM here?
Answer: The value was 43.4.

Question: For LFHPQ, which “S/B (signal to background ratio)” value [1] is on record?
Answer: The value was 138.2.

Question: Which “S/B (signal to background ratio)” value [5] does the source give for QFHPM here?
Answer: The value was 77.7.

Question: With PHPMF as the substance, how does the S/B [4] read?
Answer: Its S/B is 10.9.

Question: For SHPQG, which “S/B (signal to background ratio)” value [5] is on record?
Answer: Its value is 117.3.

Question: GTHPQ was tested. Which “S/B (signal to background ratio)” value [1] did it give?
Answer: The value was 132.9.

Question: How did the “S/B (signal to background ratio)” value [2] turn out when HPQTV was run?
Answer: Its value is 4.3.

Question: RLHPM was tested. Which “S/B (signal to background ratio)” value [1] did it give?
Answer: Its value is 33.8.

Question: Which “S/B (signal to background ratio)” value [1] does the source give for PHPMS here?
Answer: The value was 30.6.

Question: For IDHPQ, which “S/B (signal to background ratio)” value [5] is on record?
Answer: Its value is 88.2.

Question: SHPMY was tested. Which S/B [4] did it give?
Answer: Its S/B is 11.0.

Question: For AHPMY, which S/B [4] is on record?
Answer: The S/B was 7.7.

Question: For “FYNFM [L-amino acid 5-mer array peptide]”, which “S/B (signal to background ratio)” value [2] is on record?
Answer: Its value is 4.7.

Question: And the “S/B (signal to background ratio)” value [3]?
Answer: Its value is 4.7.

Question: With HPQFW as the substance, how does the “S/B (signal to background ratio)” value [1] read?
Answer: Its value is 53.0.

Question: Which “S/B (signal to background ratio)” value [1] does the source give for HPMGN here?
Answer: The value was 22.1.

Question: RWHPM was tested. Which “S/B (signal to background ratio)” value [5] did it give?
Answer: Its value is 79.7.

Question: For FSHPQ, which “S/B (signal to background ratio)” value [1] is on record?
Answer: Its value is 192.9.

Question: Which S/B [4] does the source give for HPQRQ here?
Answer: Its S/B is 9.1.

Question: For HIHPQ, which “S/B (signal to background ratio)” value [5] is on record?
Answer: Its value is 104.7.

Question: How did the S/B [4] turn out when HPQRD was run?
Answer: Its S/B is 10.7.

Question: Which “S/B (signal to background ratio)” value [1] does the source give for PFHPQ here?
Answer: The value was 193.0.

Question: EIHPM was tested. Which S/B [4] did it give?
Answer: Its S/B is 9.9.

Question: With THPQA as the substance, how does the “S/B (signal to background ratio)” value [1] read?
Answer: The value was 140.8.

Question: Which “S/B (signal to background ratio)” value [1] does the source give for LHPQM here?
Answer: Its value is 29.4.

Question: Which “S/B (signal to background ratio)” value [1] does the source give for HPQNI here?
Answer: Its value is 48.9.

Question: Which “S/B (signal to background ratio)” value [1] does the source give for VSHPQ here?
Answer: The value was 129.8.

Question: MYHPQ was tested. Which “S/B (signal to background ratio)” value [1] did it give?
Answer: Its value is 182.6.

Question: How did the “S/B (signal to background ratio)” value [2] turn out when WHKPQ was run?
Answer: The value was 4.7.

Question: EYHPQ was tested. Which “S/B (signal to background ratio)” value [5] did it give?
Answer: The value was 96.9.

Question: FNHPM was tested. Which “S/B (signal to background ratio)” value [5] did it give?
Answer: The value was 96.1.

Question: With DKHPM as the substance, how does the S/B [4] read?
Answer: The S/B was 18.2.

Question: “MPGHF [L-amino acid 5-mer array peptide]” was tested. Which “S/B (signal to background ratio)” value [3] did it give?
Answer: The value was 5.6.

Question: What about the S/B [4] of the same substance?
Answer: The S/B was 5.6.

Question: How did the “S/B (signal to background ratio)” value [1] turn out when HDHPM was run?
Answer: The value was 51.4.

Question: How did the “S/B (signal to background ratio)” value [1] turn out when HPMFN was run?
Answer: The value was 39.1.

Question: For FKHPM, which “S/B (signal to background ratio)” value [1] is on record?
Answer: The value was 44.4.

Question: WTHPM was tested. Which “S/B (signal to background ratio)” value [5] did it give?
Answer: The value was 114.6.

Question: For RHPQL, which “S/B (signal to background ratio)” value [2] is on record?
Answer: The value was 4.6.

Question: GEHPQ was tested. Which “S/B (signal to background ratio)” value [5] did it give?
Answer: The value was 63.7.

Question: For APHPM, which “S/B (signal to background ratio)” value [1] is on record?
Answer: Its value is 38.6.

Question: How did the “S/B (signal to background ratio)” value [1] turn out when IHPQN was run?
Answer: Its value is 128.3.

Question: For HPMVA, which S/B [4] is on record?
Answer: The S/B was 12.1.

Question: MYHPM was tested. Which “S/B (signal to background ratio)” value [5] did it give?
Answer: Its value is 89.3.

Question: MHPMS was tested. Which “S/B (signal to background ratio)” value [1] did it give?
Answer: Its value is 25.8.

Question: For YHPMN, which “S/B (signal to background ratio)” value [1] is on record?
Answer: The value was 26.1.

Question: Which “S/B (signal to background ratio)” value [1] does the source give for IPHPQ here?
Answer: The value was 167.5.

Question: HRHPQ was tested. Which “S/B (signal to background ratio)” value [1] did it give?
Answer: The value was 149.4.

Question: How did the “S/B (signal to background ratio)” value [1] turn out when MHPMV was run?
Answer: The value was 20.7.

Question: With TNHPQ as the substance, how does the “S/B (signal to background ratio)” value [1] read?
Answer: Its value is 135.8.

Question: VQHPQ was tested. Which “S/B (signal to background ratio)” value [5] did it give?
Answer: The value was 114.0.

Question: For YHPMF, which S/B [4] is on record?
Answer: The S/B was 13.4.

Question: HPQVD was tested. Which “S/B (signal to background ratio)” value [1] did it give?
Answer: Its value is 33.5.

Question: For VHPQV, which “S/B (signal to background ratio)” value [5] is on record?
Answer: The value was 61.3.

Question: FEHPQ was tested. Which “S/B (signal to background ratio)” value [5] did it give?
Answer: The value was 96.4.

— paper PMC5608804, “Stepwise Evolution Improves Identification of Diverse Peptides Binding to a Protein Target” (Scientific Reports, 2017)
